Laboratory results as given in patent US11078222B2, “Hydroxybenzoic acid derivatives, methods and uses thereof” (UNiVERSIDADE DO PORTO, priority 2016, dated 2021).

Columns and labels:
[1] = Iron (II) chelation, ferrozine assay; assay type: biochemical; details: compound 100 μM
Description: In an embodiment, the iron (II) chelation capacity of the novel AntiOxBENs was evaluated by the ferrozine assay using EDTA (ethylenediaminetetracetic acid) as reference. The iron chelating properties of protocatechuic and gallic acids, and MitoQ, a mitochondriotropic antioxidant, were also evaluated (FIG. 2).
In an embodiment, AntiOxBENs iron chelating properties were evaluated by the spectrophotometric ferrozine method performed in a multiplate reader (Powerwave XS Microplate Reader) of Bio-Tech instruments.
In an embodiment, the AntiOxBENs iron chelating properties were evaluated as follows: in each well, a solution of the test compound (100 μM) and ammonium iron (II) sulphate in ammonium acetate (20 μM) were added, incubated for 10 min and the absorbance was read at 562 nm. Then, a freshly prepared solution of ferrozine (5 mM) was added to each well (96 μM final concentration). After a new incubation at 37° C. for 10 min period, the absorbance of [Fe(ferrozine)3]^2+ complex was measured at 562 nm. Blank wells were run using DMSO instead of the test compounds. EDTA was used as a reference. All compounds were tested at a final concentration of 100 μM. The absorbance of the first reading was subtracted to the final values to abolish any absorbance due to the test compounds.

[2] = DPPH radical scavenging activity (total antioxidant capacity); assay type: biochemical; details: ethanol, 515 nm, 45 min
Description: (§2) The radical scavenging activity of AntiOxClNs was evaluated by means of total antioxidant capacity assays based on DPPH., ABTS.^+ and GO. radicals. All these methods involved the spectrophotometric measurement of the absorbance decrease resulting from radical (DPPH., ABTS.^+ or GO.) deactivation with an antioxidant. The results were expressed in IC50, which is defined as the minimum antioxidant concentration necessary to reduce the amount of radical by 50%. Antioxidant assays were performed in a multiplate reader (Powerwave XS Microplate Reader) from Bio Tech instruments.
A DPPH ethanolic solution (6.85 mM) was also prepared and then diluted to reach the absorbance of 0.72±0.02 at 515 nm. Each compound solution (20 μL) was added to 180 μL of DPPH. solution in triplicate, and the absorbance at 515 nm was recorded minutely over 45 minutes. […] Dose-response curves were established for the determination of IC50 values.

[3] = ABTS radical cation scavenging activity; assay type: biochemical; details: ethanol, 15 min
Description: as §2
In an embodiment, the ABTS.^+ scavenging activity was evaluated as follows: ethanolic solutions of the test compounds with increasing concentrations (range between 10 μM and 500 μM) were prepared. ABTS. radical cation solution was obtained by addition of 150 mM aqueous potassium persulfate solution (163 μL) to 10 mL of 7 mM aqueous ABTS solution followed by storage in the dark at room temperature for 16 h (2.45 mM final concentration). The solution was then diluted in ethanol to reach the absorbance of 0.72±0.02. After addition of the compound (20 μL), in triplicate, to ABTS.^+ solution (180 μL) the spectrophotometric measurement was carried out each minute over 15 minutes. […] Dose-response curves were established for the determination of IC50 values.

[4] = GO radical scavenging activity; assay type: biochemical; details: ethanol, 428 nm, 30 min
Description: The selected total antioxidant capacity (TAC) assays (DPPH, ABTS and GO) involved the spectrophotometric measurement of the radical absorbance decrease as a result of an in situ radical deactivation by an antioxidant.
as §2
In an embodiment, the GO. scavenging activity was evaluated as follows: solutions of test compounds with concentrations from 10 μM to 100 μM were prepared in ethanol. An ethanolic solution of 5 mM GO. was prepared and diluted to reach the absorbance of 1.00±0.02 at 428 nm. The addition (20 μL) in triplicate of compound solution to GO. solution (180 μL) was followed by absorbance measurement at 428 nm over 30 minutes, in the dark, at room temperature. […] Dose-response curves were established for the determination of IC50 values.

[5] = Redox potential by differential pulse and cyclic voltammetry, glassy carbon electrode; assay type: physicochemical; details: physiological pH 7.4
Description: In an embodiment, the oxidative behaviour of the parent antioxidants (protocatechuic and gallic acids) and AntiOxBENs was evaluated at physiological pH 7.4, by differential pulse and cyclic voltammetry, using a glassy carbon working electrode. […] For pyrogallol derivatives (gallic acid, AntiOxBEN2, AntiOxBEN3), a significant decrease in redox potentials was observed (Ep=0.163-0.168 V) (Table 1).
In an embodiment, the electrochemical analytical data was obtained using a computer controlled potentiostat Autolab PGSTAT302N (Metrohm Autolab, Utrecht, Netherlands). Generally, cyclic voltammetry (CV) data was acquired at a scan rate of 50 mVs^−1. Differential pulse voltammetry (DPV) results were acquired at a step potential of 4 mV, pulse amplitude of 50 mV and scan rate of 8 mVs^−1. The electrochemical signals were monitored by the General Purpose Electrochemical System (GPES) version 4.9, software package. All electrochemical experiments were performed at room temperature in an electrochemical cell that was placed in a Faraday cage in order to minimize the contribution of background noise to the analytical signal.
In an embodiment, the process of evaluation of AntiOxBENs redox properties was conducted as follows: stock solutions of each compound (10 mM) were prepared by dissolving the appropriate amount in ethanol. The voltammetric working solutions were prepared in the electrochemical cell, at a final concentration of 0.1 mM. The […] supporting electrolyte was prepared by diluting 6.2 mL of 0.2 M dipotassium hydrogen phosphate and 43.8 mL of 0.2 M potassium dihydrogen phosphate to 100 mL. Voltammetric data was acquired in a three-electrode system consisting of a glassy carbon electrode (GCE, d=2 mm) as working electrode, a counter electrode of platinum wire and a saturated Ag/AgCl reference electrode. In an embodiment, the evaluation of AntiOxBENs lipophilic properties was performed as follows: the electrochemical cell was a four-electrode system with arrays of micro liquid-liquid interfaces (μITIES) containing two Ag/AgCl reference electrodes and two counter electrodes of Pt, one in each phase. The microporous membrane was sealed with a fluorosilicone sealant (Dow Corning 730) onto a glass cylinder which was filled with 4.0 mL of the aqueous phase, where the aliquots of AntiOxBENs solutions were added. The membrane was then immersed into the organic phase contained in the cell. The organic phase reference solution (a 2 mM BTPPACI+2 mM NaCl aqueous solution) was mechanically stabilized The aqueous supporting electrolyte solution was a Tris-HCl buffer 10 mM pH 7.0.

[6] = system: rat liver mitochondria (RLM) membranes; assay: RLM lipid peroxidation, TBARS assay (FeSO4/H2O2/ascorbate); details: 5 μM; for prevention of TBARS formation / mitochondria lipid peroxidation: FeSO4/H2O2/ascorbate
[7] = system: rat liver mitochondria (RLM); assay: Mitochondrial respiration of isolated RLM (Clark-type oxygen electrode): RCR, ADP/O; assay type: biochemical
Description: (§1) In an embodiment, and as an example, the toxicity effects of some AntiOxBENs and MitoQ on the mitochondrial bioenergetics, namely on RLM Δψ and respiration parameters, were measured. The Δψ represents the main component of the electrochemical gradient generated by mitochondrial respiration and accounts for more than 90% of the total available energy. For mitochondrial respiration assays, glutamate/malate (for complex I) and succinate (for complex II) were used as substrates. In addition, the mitochondrial oxidative phosphorylation coupling index, known as respiratory control ratio (RCR, state 3/state 4 respiration) and ADP/O index (the coupling between ATP synthesis and oxygen consumption) were also calculated. AntiOxBENs and MitoQ were tested at antioxidant-relevant concentrations, with 10 μM being the highest concentration.
In an embodiment, the evaluation of AntiOxBENs effect on mitochondrial respiration was performed as follows: the respiration of isolated RLM was evaluated polarographically with a Clark-type oxygen electrode, connected to a suitable recorder in a 1 mL thermostated water-jacketed chamber with magnetic stirring, at 37° C. […] Increasing concentrations of AntiOxBENs (2.5-10 μM) were added to the reaction medium containing respiratory substrates glutamate/malate (10 mM and 5 mM respectively) or succinate (5 mM) and RLM (1 mg) and allowed to incubate for a 5 min period prior to the assay. State 2 was considered as the respiration during the 5 min incubation time with AntiOxBENs. […] State 4 was determined after ADP phosphorylation finished. Subsequent addition of oligomycin (2 μg/ml) inhibited ATPsynthase and originated the oligomycin-inhibition respiration state. Finally, 1 μM FCCP was added to induce uncoupled respiration. […] Data are means are means±SEM of seven independent experiments.

[8] = system: rat liver mitochondria (RLM); assay: Mitochondrial transmembrane electric potential (safranine fluorescence); assay type: biochemical
Description: as §1
In an embodiment, the evaluation of AntiOxBENs effect on mitochondrial transmembrane electric potential (Δψ) was performed as follows: the mitochondrial transmembrane electric potential (Δψ) was estimated through the evaluation of fluorescence changes of safranine (5 μM) and was recorded on a spectrofluorometer operating at excitation and emission wavelengths of 495 and 586 nm, with a slit width of 5 nm. Increasing concentrations of AntiOxBENs (2.5-10 μM) were added to the reaction medium (200 mM sucrose, 1 mM KH2PO^4, 10 mM Tris (pH 7.4) and 10 μM EGTA) containing respiratory substrates glutamate/malate (5 mM and 2.5 mM respectively) or succinate (5 mM) and RLM (0.5 mg in 2 mL final volume) and allowed to incubate for a 5 min period prior to initiate the assay, at 25° C. In this assay, safranine (5 μM) and ADP (25 nmol) were used to initiate the assay and to induce depolarization, respectively. Then, 1 μM FCCP was added at the end of all experiments to depolarize mitochondria. Δψ was calculated using a calibration curve obtained when RLM were incubated in a K^+-free reaction medium containing 200 mM sucrose, 1 mM NaH2PO4, 10 mM Tris (pH 7.4) and 10 μM EGTA, supplemented with 0.4 μg valinomicin. […] “Repolarization” corresponded to the recovery of membrane potential after the complete phosphorylation of ADP added. Lag phase reflected the time required to phosphorylate the added ADP. Isolated RLM developed a Δψ≈226 mV and Δψ≈202 mV (negative inside) when glutamate/malate or succinate were used, respectively. Data are means±SEM of five independent experiments.

## O=C(O)CN(CCN(CC(=O)O)CC(=O)O)CC(=O)O [EDTA, ethylenediaminetetracetic acid]
[1]
  ability to chelate ferrous iron: chelate all the iron available in solution

## O=C(O)c1cc(O)c(O)c(O)c1 [Gallic acid]
[2]
  IC50: 9.9 µM
[3]
  IC50: 7.8 µM
[4]
  IC50: 2.5 µM
[5]
  Ep (redox potential): 0.163 V
[1]
  ability to chelate ferrous iron: able to chelate iron efficiently
[6]
  prevention of TBARS formation / mitochondria lipid peroxidation: most effective

## COC1=C(OC)C(=O)C(CCCCCCCCCC[P+](c2ccccc2)(c2ccccc2)c2ccccc2)=C(C)C1=O.CS(=O)(=O)[O-] [MitoQ, [10-(4,5-dimethoxy-2-methyl-3,6-dioxo-1,4-cyclohexadien-1-yl)decyl]triphenylphosphonium methanesulfonate, reference compound]
[7]; RLM
  concentration causing toxicity on the mitochondrial bioenergetic apparatus of RLM: 2500 nM
[7]; RLM, Glutamate/Malate, 2.5 μM
  ADP/O: 2.2 ± 0.1
  RCR: 4.2 ± 0.6
[7]; RLM, Glutamate/Malate, 5 μM
  ADP/O: 1.9 ± 0.1
  RCR: 2.7 ± 0.3
[7]; RLM, Glutamate/Malate, 10 μM
  ADP/O: 2.0 ± 0.2
  RCR: 1.3 ± 0.1
[7]; RLM, Succinate, 2.5 μM
  ADP/O: 1.3 ± 0.1
  RCR: 2.6 ± 0.2
[7]; RLM, Succinate, 5 μM
  ADP/O: 1.3 ± 0.1
  RCR: 2.4 ± 0.2
[7]; RLM, all tested concentrations (2.5-10 μM)
  effect on RCR and ADP/O parameters: significant decrease of RCR and ADP/O parameters
[7]; succinate, highest concentration tested (10 μM)
  uncoupling of RLM: completely uncoupled
[8]; 10 μM
  Δψ after ADP addition: Δψ collapse after ADP addition
[8]; Glutamate/Malate, 2.5 μM
  ADP-induced depolarization (ΔΨ in - mV): 173.0 ± 9.4 - mV
  Lag Phase: 86.5 ± 5.6 s
  Maximum potential (ΔΨ in - mV): 195.7 ± 10.8 - mV
  Repolarization Potential (ΔΨ in - mV): 191.1 ± 11.7 - mV
[8]; Glutamate/Malate, 5 μM
  ADP-induced depolarization (ΔΨ in - mV): 173.5 ± 8.9 - mV
  Lag Phase: 84.5 ± 7.1 s
  Maximum potential (ΔΨ in - mV): 188.3 ± 10.6 - mV
  Repolarization Potential (ΔΨ in - mV): 185.0 ± 9.4 - mV
[8]; Glutamate/Malate, 10 μM
  Maximum potential (ΔΨ in - mV): 113.8 ± 10.2 - mV
[8]; Succinate, 2.5 μM
  ADP-induced depolarization (ΔΨ in - mV): 162.1 ± 6.0 - mV
  Lag Phase: 104.8 ± 9.9 s
  Maximum potential (ΔΨ in - mV): 181.6 ± 8.3 - mV
  Repolarization Potential (ΔΨ in - mV): 182.7 ± 9.2 - mV
[8]; Succinate, 5 μM
  ADP-induced depolarization (ΔΨ in - mV): 157.1 ± 6.4 - mV
  Lag Phase: 92.6 ± 19.4 s
  Maximum potential (ΔΨ in - mV): 170.2 ± 8.1 - mV
  Repolarization Potential (ΔΨ in - mV): 170.7 ± 8.7 - mV
[8]; Succinate, 10 μM
  Maximum potential (ΔΨ in - mV): 108.9 ± 3.8 - mV
[6]; FIGS. 4 and 5 (TBARS and oxygen consumption)
  inhibition of lipid peroxidation in RLM: effectively inhibited lipid peroxidation

## O=C(O)c1ccc(O)c(O)c1 [Protocatechuic acid]
[2]
  IC50: 27.6 µM
[3]
  IC50: 30.1 µM
[4]
  IC50: 5.8 µM
[5]
  Ep (redox potential): 0.257 V
[1]
  ability to chelate ferrous iron: able to chelate iron efficiently
[6]
  prevention of TBARS formation / mitochondria lipid peroxidation: not effective

## Cc1c(C)c2c(c(C)c1O)CCC(C)(C(=O)O)O2 (centres unmarked) [Trolox]
[2]
  IC50: 26.8 µM
[3]
  IC50: 31.1 µM
[4]
  IC50: 4.5 µM
[5]
  Ep (redox potential): 0.099 V

## Vitamin E
[2]
  IC50: 26.3 µM
[3]
  IC50: 30.9 µM
[4]
  IC50: 5.8 µM
